Laboratory results published in patent publication US12594289B2, “Potentiation of antibiotic effect” (The University of North Carolina at Chapel Hill, priority 2017, dated 2026).
In brackets after ≈: the same amount, converted by molar mass. Read-outs that look alike come from different tables or passages of the source.

Key:
Type in all cases: cell-based, Staphylococcus aureus
S. aureus HG003 [1] = assay: Propidium iodide uptake, membrane permeability (Example 11)
S. aureus HG003 [2] = assay: Killing by permeabilizing molecules in combination with tobramycin over 24 hours (Example 11)
S. aureus HG003 [3] = assay: microbe, parasite or virus in culture; settings: for MIC: Staphylococcus aureus
S. aureus HG003 [4] = assay: Killing of S. aureus by tobramycin with or without rhamnolipids (Example 4); settings: tobramycin 58 μg/ml alone
[5] = tested on: S. aureus HG003, arsenate treated; assay: Killing of low energy (arsenate treated) S. aureus (Example 6); settings: tobramycin 58 μg/ml, arsenate 1 mM
S. aureus HG003 [6] = assay: Killing in the presence of protein synthesis inhibitor linezolid (Example 8); settings: tobramycin 58 μg/ml, linezolid 50 μg/ml
[7] = tested on: S. aureus HG003 menD mutant (SCV)

Row | SMILES | lethality to S. aureus alone (S. aureus HG003 [1]) | permeabilization of S. aureus (propidium iodide uptake) (S. aureus HG003 [1]) | effect of the presence of P. aeruginosa supernatant on MIC (S. aureus HG003 [3]) | MIC (S. aureus HG003 [3]; HG003) [µg/mL] | MIC (S. aureus HG003 [3]; PA14 / PAO1) [µg/mL] | other results
1 | CCCCCCCCCCCC(=O)OCC(O)CO (stereo not drawn) [glycerol monolaureate] | not lethal | permeabilize | – | – | – | potentiation of tobramycin killing over 24 hours (S. aureus HG003 [2]): significant potentiation
2 | Cc1onc(-c2ccccc2)c1C(=O)N[C@@H]1C(=O)N2[C@@H]1SC(C)(C)[C@@H]2C(=O)O [oxacillin] | – | – | not affected | 0.39 (≈ 0.971 µM) | 0.39 (≈ 0.971 µM) | –
3 | CCCCCC/C=C\CCCCCCCC(=O)O [palmitoleic acid] | not lethal | permeabilize | – | – | – | potentiation of tobramycin killing over 24 hours (S. aureus HG003 [2]; in combination with tobramycin): significant potentiation
4 | NC[C@H]1O[C@H](O[C@H]2[C@H](O)[C@@H](O[C@H]3O[C@H](CO)[C@@H](O)[C@H](N)[C@H]3O)[C@H](N)C[C@@H]2N)[C@H](N)C[C@@H]1O [tobramycin] | – | – | – | – | 3.12 to 6.25 (≈ 6.68 to 13.4 µM) | MIC (S. aureus HG003 [3]; PA14): 0.39 µg/mL (≈ 0.834 µM); survivors after 12 hours (S. aureus HG003 [4]): 10^4; killing of S. aureus under arsenate-induced low ATP [5]: fails to kill; killing in the presence of linezolid (S. aureus HG003 [6]): fails to kill; susceptibility of the menD mutant [7]: resistant
5 | CN[C@H](CC(C)C)C(=O)N[C@H]1C(=O)N[C@@H](CC(N)=O)C(=O)N[C@H]2C(=O)N[C@H]3C(=O)N[C@H](C(=O)N[C@H](C(=O)O)c4cc(O)cc(O)c4-c4cc3ccc4O)[C@H](O)c3ccc(c(Cl)c3)Oc3cc2cc(c3O[C@@H]2O[C@H](CO)[C@@H](O)[C@H](O)[C@H]2O[C@H]2C[C@](C)(N)[C@H](O)[C@H](C)O2)Oc2ccc(cc2Cl)[C@H]1O [vancomycin] | – | – | not affected | 1.25 (≈ 0.863 µM) | 1.25 (≈ 0.863 µM) | –
